Laboratory results taken from patent US10577315B2, “Compositions and methods for treatment of prostate carcinoma” (Pellficure Pharmaceuticals, Inc., priority 2014, dated 2020).

Legend:
[1] = tested on: H2B-GFP-PTEN-P2 tumor cells; assay: In vivo effect combined with castration in the pseudo-orthotopic chamber model for prostate cancer; design: species or system mouse; conditions: orally once a day in sesame seed oil, equimolar to 1 mg/kg plumbagin, castrated male nu/nu mice
Excerpt: A syngeneic pseudo-orthotopic in vivo model was developed to study the early steps of prostate cancer. Chambers are surgically placed into the dorsal skinfold of male mice. Briefly, male mice (25-30 g body weight) are anesthetized and placed on a heating pad. Two symmetrical titanium frames are implanted into the dorsal skinfold. A circular layer is excised from one of the skin layers. The underlying muscle and subcutaneous tissues are covered with a glass coverslip incorporated in one of the frames. After a recovery period of 2-3 days, stoma tissue and tumor cells are carefully placed in the chamber.
Male Nude mice (25-35 g body weight) are anesthetized (7.3 mg ketamine hydrochloride and 2.3 mg xylazine/100 g body weight, i.p.) and placed on a heating pad. Two symmetrical titanium frames are implanted into a dorsal skinfold, so as to sandwich the extended double layer of skin. […]
Liquid overlay plates are generated using 1% Agarose melted in DMEM that is added to round-bottom 96-well plates (50 ul/well). […] Viability is determined using Trypan blue. […]. The size of the implanted spheroid can be determined precisely to minimize variations between animals. […]
Fluorescence microscopy is performed using a Mikron Instrument Microscope equipped with epi-illuminator and video-triggered stroboscopic illumination from a xenon arc (MV-7600, EG&G). […]

[2] = tested on: PTEN-P2/GFP prostate cancer cells; assay: Effect of 1,4-naphthoquinone analogs on PTEN-P2/GFP cell proliferation (WST-1 cell viability, 24 h); assay type: cell-based; conditions: Mus musculus, WST-1, medium with 10% FBS and DHT, read-out: PTEN-P2/GFP cell proliferation, percent of control
Method in brief: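 PTEN-P2/GFP cells, 8000/well, in medium with 10% FBS and 10^−8M DHT, dosed next day with increasing analog concentrations (constant DMSO) for 24 h at 37 °C, 5% CO2. Viability read by WST-1 after 3 h at 37 °C, OD at 460 nm.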

In the case of `O=C1C=C(Nc2ccccc2)C(=O)c2ccccc21` [Analog F35, 2-(phenylamino)naphthalene-1,4-dione], the “in vivo efficiency of combination treatment with castration compared with plumbagin and castration (FIG. 9)” value [1] is reported as “more efficient in vivo than treatment with plumbagin and castration”.

Compound `COc1cccc2c1C(=O)C=CC2=O` [Analog F51, 5-methoxy-1,4-naphthoquinone] has an activity at 1 µM ([2]; 1 μM) of 103%, an activity at 2 µM ([2]; 2 μM) of 104% and an activity at 3 µM ([2]; 3 μM) of 105%. The activity at 4 µM ([2]; 4 μM) was 105%, the activity at 5 µM ([2]; 5 μM) was 103% and the activity at 6 µM ([2]; 6 μM) was 94%. The activity at 7 µM ([2]; 7 μM) was 85.7%, the activity at 10 µM ([2]; 10 μM) was 43.4% and the activity at 25 µM ([2]; 25 μM) was 9.58%. For the same compound, the activity at 50 µM ([2]; 50 μM) was 10.3% and the “in vivo efficiency of combination treatment with castration compared with plumbagin and castration (FIG. 9)” value [1] was “more efficient in vivo than treatment with plumbagin and castration”.
